Assay results as given in ChEMBL document CHEMBL4007482, “Evaluation of anti-diabetic effect and gall bladder function with 2-thio-5-thiomethyl substituted imidazoles as TGR5 receptor agonists” (Bioorg Med Chem Lett, 2017).

Assays:
Format in all cases: ADME, organism-based
[1] = Plasma concentration in C57BL/6J mouse at 50 mg/kg, po after 45 mins by LC-MS/MS analysis
[2] = Half life in C57BL/6J mouse at 5 mg/kg, iv by LC-MS/MS analysis; details: in vivo
[3] = AUClast in C57BL/6J mouse at 5 mg/kg, iv by LC-MS/MS analysis; design: dose 5 mg/kg, route intravenous, time 0 - last; details: in vivo
[4] = AUC (0 to infinity) in C57BL/6J mouse at 5 mg/kg, iv by LC-MS/MS analysis; design: dose 5 mg/kg, time infinity, route intravenous; details: in vivo
[5] = Apparent volume of distribution in C57BL/6J mouse at 5 mg/kg, iv by LC-MS/MS analysis; details: in vivo, read-out: Vz
[6] = Volume of distribution at steady state in C57BL/6J mouse at 5 mg/kg, iv by LC-MS/MS analysis; details: in vivo, read-out: Vdss
[7] = Clearance in C57BL/6J mouse at 5 mg/kg, iv by LC-MS/MS analysis; details: in vivo
[8] = MRT in C57BL/6J mouse at 5 mg/kg, iv by LC-MS/MS analysis; details: in vivo
[9] = Half life in C57BL/6J mouse at 20 mg/kg, po via gavage by LC-MS/MS analysis; details: in vivo
[10] = Tmax in C57BL/6J mouse at 20 mg/kg, po via gavage by LC-MS/MS analysis; details: in vivo
[11] = Cmax in C57BL/6J mouse at 20 mg/kg, po via gavage by LC-MS/MS analysis; design: dose 20 mg/kg, route oral; details: in vivo
[12] = AUClast in C57BL/6J mouse at 20 mg/kg, po via gavage by LC-MS/MS analysis; design: dose 20 mg/kg, time 0 - last, route oral; details: in vivo
[13] = AUC (0 to infinity) in C57BL/6J mouse at 20 mg/kg, po via gavage by LC-MS/MS analysis; design: dose 20 mg/kg, route oral, time infinity; details: in vivo
[14] = MRT in C57BL/6J mouse at 20 mg/kg, po via gavage by LC-MS/MS analysis; details: in vivo
[15] = Oral bioavailability in C57BL/6J mouse at 20 mg/kg via gavage by LC-MS/MS analysis; details: in vivo
[16] = Plasma concentration in CD-1 mouse at 50 mg/kg, po after 1.25 hrs
[17] = Plasma concentration in fasted C57BL/6J mouse at 50 mg/kg, po after 45 mins
[18] = Plasma concentration in fasted C57BL/6J mouse at 30 mg/kg, sc after 45 mins

## COc1ccc(SCc2cnc(SCc3c(F)cc(-c4nn[nH]n4)cc3F)n2-c2ccc(F)cc2)cc1OC
[1]
  concentration at 0.75 h: 1180 nM
[2]
  half-life: 26.7 min
[3]
  AUC(0-t): 379 ng·h/mL
[4]
  AUC(0-inf): 390 ng·h/mL
[5]
  Vd: 8.24 L/kg
[6]
  Vd: 4.44 L/kg
[7]
  clearance: 214 mL/min/kg
[8]
  MRT: 17 min
[9]
  half-life: 164 min
[10]
  Tmax: 30 min
[11]
  Cmax: 68.1 ng/mL
[12]
  AUC(0-t): 98.4 ng·h/mL
[13]
  AUC(0-inf): 148 ng·h/mL
[14]
  MRT: 82.2 min
[15]
  bioavailability: 6.48%
[16]
  concentration at 1.25 h: 20 nM
[17]
  concentration at 0.75 h: 1030 nM
[18]
  concentration at 0.75 h: 15800 nM
